# Molecular target: T1, ERα (Homo sapiens, UniProt P03372)
# T1 construct: host or cells: MCF7 cells
# T1 sequence (P03372 1-595): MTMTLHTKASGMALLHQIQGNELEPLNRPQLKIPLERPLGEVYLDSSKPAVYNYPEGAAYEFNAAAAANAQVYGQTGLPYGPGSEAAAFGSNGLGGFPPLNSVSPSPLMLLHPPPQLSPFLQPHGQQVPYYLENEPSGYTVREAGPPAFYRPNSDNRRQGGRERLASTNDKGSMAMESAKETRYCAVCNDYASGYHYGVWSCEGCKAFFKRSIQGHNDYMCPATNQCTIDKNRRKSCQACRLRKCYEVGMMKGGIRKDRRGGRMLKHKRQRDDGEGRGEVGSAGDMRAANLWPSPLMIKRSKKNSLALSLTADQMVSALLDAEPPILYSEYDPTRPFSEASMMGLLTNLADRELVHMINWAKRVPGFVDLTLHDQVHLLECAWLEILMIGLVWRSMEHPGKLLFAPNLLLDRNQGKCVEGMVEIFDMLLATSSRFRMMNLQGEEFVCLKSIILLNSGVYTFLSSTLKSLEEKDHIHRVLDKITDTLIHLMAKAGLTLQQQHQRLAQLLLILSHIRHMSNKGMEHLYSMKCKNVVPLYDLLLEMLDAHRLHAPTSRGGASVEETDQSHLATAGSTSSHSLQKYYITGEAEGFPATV
# Experiment: Estrogen receptor degradation activity: breast cancer cell ERα in cell western assay (MCF7 cells)
# Assay type: cell-based
# Conditions: 4 hours, final concentrations ranging from 0.3-0.0000018 μM, relative to fulvestrant 0.1 μM positive control
# Protocol: Test: Estrogen Receptor Degradation Activity
# Said test involves measuring the in vitro degradation activity of the compounds of the invention.
# The measurements of the degradation activities were made using a breast cancer cell ERα in cell western assay as described hereunder.
# MCF7 cells (ATCC) were seeded in 384 wells microplate (collagen coated) at a concentration of 10000 cells/30 μL, per well in red phenol free MEM alpha medium (invitrogen) containing 5% charcoal dextran striped FBS. The following day, 9 points serial 1:5 dilution of each compound was added to the cells in 2.5 μL at final concentrations ranging either from 3-0.000018 μM (column «% Degradation at 3 μM in table 2) or from 0.3-0.0000018 μM (column «% Degradation at 0.3 μM in table 2), or 0.1 μM for fulvestrant (using as positive control). At 4 hours post compound addition the cells were fixed by adding 25 μL of formalin (final concentration 5% formalin containing 0.1% triton) for 10 minutes at room temperature and then washed twice with PBS. Then, 50 μL of LI-COR blocking buffer containing 0.1% Triton was added to plate for 30 minutes at room temperature. LI-COR blocking buffer was removed and cells were incubated overnight at cold room with 50 μL anti-ER rabbit monoclonal antibody (Thermo scientific MA1-39540) diluted at 1:1000 in LI-COR blocking buffer containing 0.1% tween-20. Wells which were treated with blocking buffer but no antibody were used as background control. Wells were washed twice with PBS (0.1% tween-20) and incubated at 37° C. for 60 minutes in LI-COR (0.1% tween-20) containing goat anti-rabbit antibody Alexa 488 (1:1000) and Syto-64 a DNA dye ([…]). Cells were then washed 3 times in PBS and scanned in ACUMEN explorer (TTP-Labtech). Integrated intensities in the green fluorescence and red fluorescence were measured to determine the levels of ERα and DNA respectively.
row,% Degradation At 0.3 μM [%],SMILES
1,90,"OC(c1ccc2c(c1)CCCC(c1cccc(F)c1Cl)=C2c1ccc(O[C@H]2CCN(CCCF)C2)cc1)C(F)(F)F (stereo partly drawn) [Example 65, 1-(8-(2-chloro-3-fluorophenyl)-9-(4-(((S)-1-(3-fluoropropyl)pyrrolidin-3-yl)oxy)phenyl)-6,7-dihydro-5H-benzo[7]annulen-3-yl)-2,2,2-trifluoroethan-1-ol]"
2,85,"OB(O)c1ccc2c(c1)CCCC(c1ccccc1)=C2c1ccc(O[C@H]2CCN(CCCF)C2)cc1 [Example 92, (S)-(9-(4-((1-(3-fluoropropyl)pyrrolidin-3-yl)oxy)phenyl)-8-phenyl-6,7-dihydro-5H-benzo[7]annulen-3-yl)boronic acid]"
3,68,"CC(C)(C)C(=O)Nc1ccc2c(c1)CCCC(c1ccc(Cl)cc1Cl)=C2c1ccc(O[C@H]2CCN(CCCF)C2)cc1 [Example 62, (S)—N-(8-(2,4-dichlorophenyl)-9-(4-((1-(3-fluoropropyl)pyrrolidin-3-yl)oxy)phenyl)-6,7-dihydro-5H-benzo[7]annulen-3-yl)pivalamide]"
4,76,"O=[N+]([O-])c1cccc(-c2ccc3c(c2)CCCC(c2cccc(F)c2Cl)=C3c2ccc(O[C@H]3CCN(CCCF)C3)cc2)c1 [Example 96, (S)-3-(4-(8-(2-chloro-3-fluorophenyl)-3-(3-nitrophenyl)-6,7-dihydro-5H-benzo[7]annulen-9-yl)phenoxy)-1-(3-fluoropropyl)pyrrolidine]"
5,74,"O=C(O)c1ccc(-c2ccc3c(c2)CCCC(c2ccc(Cl)cc2Cl)=C3c2ccc(O[C@H]3CCN(CCCF)C3)cc2)cc1 [Example 72, (S)-4-(8-(2,4-dichlorophenyl)-9-(4-((1-(3-fluoropropyl)pyrrolidin-3-yl)oxy)phenyl)-6,7-dihydro-5H-benzo[7]annulen-3-yl)benzoic acid]"
6,59,"CC(C)(O)c1ccc(-c2ccc3c(c2)CCCC(c2cccc(F)c2Cl)=C3c2ccc(O[C@H]3CCN(CCCF)C3)cc2)cc1 [Example 98, (S)-2-(4-(8-(2-chloro-3-fluorophenyl)-9-(4-((1-(3-fluoropropyl)pyrrolidin-3-yl)oxy)phenyl)-6,7-dihydro-5H-benzo[7]annulen-3-yl)phenyl)propan-2-ol]"
7,77,"CS(=O)(=O)Nc1ccc2c(c1)CCCC(c1cccc(F)c1Cl)=C2c1ccc(O[C@H]2CCN(CCCF)C2)cc1 [Example 90, (S)—N-(8-(2-chloro-3-fluorophenyl)-9-(4-((1-(3-fluoropropyl)pyrrolidin-3-yl)oxy)phenyl)-6,7-dihydro-5H-benzo[7]annulen-3-yl)methanesulfonamide]"

# Same assay, conditions: 4 hours, final concentrations ranging from 3-0.000018 μM, relative to fulvestrant 0.1 μM positive control
row,% Degradation At 3 μM [%],SMILES
1,84,"O=C(O)Cc1ccc2c(c1)CCCC(c1ccc(Cl)cc1Cl)=C2c1ccc(O[C@H]2CCN(CCCF)C2)cc1 [Example 93, (S)-2-(8-(2,4-dichlorophenyl)-9-(4-((1-(3-fluoropropyl)pyrrolidin-3-yl)oxy)phenyl)-6,7-dihydro-5H-benzo[7]annulen-3-yl)acetic acid]"
2,70,"CC(=O)Nc1ccc2c(c1)CCCC(c1ccc(Cl)cc1Cl)=C2c1ccc(O[C@H]2CCN(CCCF)C2)cc1 [Example 48, (S)—N-(8-(2,4-dichlorophenyl)-9-(4-((1-(3-fluoropropyl)pyrrolidin-3-yl)oxy)phenyl)-6,7-dihydro-5H-benzo[7]annulen-3-yl)acetamide]"
3,87,"Oc1cc(-c2ccc3c(c2)CCCC(c2ccc(Cl)cc2Cl)=C3c2ccc(O[C@H]3CCN(CCCF)C3)cc2)on1 [Example 4, (S)-5-(8-(2,4-dichlorophenyl)-9-(4-((1-(3-fluoropropyl)pyrrolidin-3-yl)oxy)phenyl)-6,7-dihydro-5H-benzo[7]annulen-3-yl)isoxazol-3-ol]"
4,74,"O=C(Nc1ccc2c(c1)CCCC(c1ccc(Cl)cc1Cl)=C2c1ccc(O[C@H]2CCN(CCCF)C2)cc1)C1CC1 [Example 60, (S)—N-(8-(2,4-dichlorophenyl)-9-(4-((1-(3-fluoropropyl)pyrrolidin-3-yl)oxy)phenyl)-6,7-dihydro-5H-benzo[7]annulen-3-yl)cyclopropanecarboxamide]"
5,71,"O=c1[nH]c(-c2ccc3c(c2)CCCC(c2ccc(Cl)cc2Cl)=C3c2ccc(O[C@H]3CCN(CCCF)C3)cc2)no1 [Example 27, (S)-3-(8-(2,4-dichlorophenyl)-9-(4-((1-(3-fluoropropyl)pyrrolidin-3-yl)oxy)phenyl)-6,7-dihydro-5H-benzo[7]annulen-3-yl)-1,2,4-oxadiazol-5(4H)-one]"
6,90,"N=C(NO)c1ccc2c(c1)CCCC(c1ccc(Cl)cc1Cl)=C2c1ccc(O[C@H]2CCN(CCCF)C2)cc1 [Example 26, (S)-8-(2,4-dichlorophenyl)-9-(4-((1-(3-fluoropropyl)pyrrolidin-3-yl)oxy)phenyl)-N-hydroxy-6,7-dihydro-5H-benzo[7]annulene-3-carboximidamide]"
7,84,"O=C(Nc1nn[nH]n1)c1ccc2c(c1)CCCC(c1ccc(Cl)cc1Cl)=C2c1ccc(O[C@H]2CCN(CCCF)C2)cc1 [Example 17, (S)-8-(2,4-dichlorophenyl)-9-(4-((1-(3-fluoropropyl)pyrrolidin-3-yl)oxy)phenyl)-N-(2H-tetrazol-5-yl)-6,7-dihydro-5H-benzo[7]annulene-3-carboxamide]"
8,93,"OC(c1ccc2c(c1)CCCC(c1ccc(Cl)cc1Cl)=C2c1ccc(O[C@H]2CCN(CCCF)C2)cc1)C(F)F (stereo partly drawn) [Example 5, 1-(8-(2,4-dichlorophenyl)-9-(4-(((S)-1-(3-fluoropropyl)pyrrolidin-3-yl)oxy)phenyl)-6,7-dihydro-5H-benzo[7]annulen-3-yl)-2,2-difluoroethan-1-ol]"
9,86,"FCCCN1CC[C@H](Oc2ccc(C3=C(c4ccc(Cl)cc4Cl)CCCc4cc(-c5nnco5)ccc43)cc2)C1 [Example 7, (S)-2-(8-(2,4-dichlorophenyl)-9-(4-((1-(3-fluoropropyl)pyrrolidin-3-yl)oxy)phenyl)-6,7-dihydro-5H-benzo[7]annulen-3-yl)-1,3,4-oxadiazole]"
10,95,"O=C1NC(=O)C(c2ccc3c(c2)CCCC(c2ccc(Cl)cc2Cl)=C3c2ccc(O[C@H]3CCN(CCCF)C3)cc2)N1 (stereo partly drawn) [Example 43, 5-(8-(2,4-dichlorophenyl)-9-(4-(((S)-1-(3-fluoropropyl)pyrrolidin-3-yl)oxy)phenyl)-6,7-dihydro-5H-benzo[7]annulen-3-yl)imidazolidine-2,4-dione]"
11,76,"Nc1nc(-c2ccc3c(c2)CCCC(c2ccc(Cl)cc2Cl)=C3c2ccc(O[C@H]3CCN(CCCF)C3)cc2)cs1 [Example 61, (S)-4-(8-(2,4-dichlorophenyl)-9-(4-((1-(3-fluoropropyl)pyrrolidin-3-yl)oxy)phenyl)-6,7-dihydro-5H-benzo[7]annulen-3-yl)thiazol-2-amine]"
12,74,"O=C1OCCN1c1ccc(C2=C(c3ccc(O[C@H]4CCN(CCCF)C4)cc3)c3ccc(N4CCOC4=O)cc3CCC2)c(Cl)c1 [Example 41, (S)-3-(8-(2-chloro-4-(2-oxooxazolidin-3-yl)phenyl)-9-(4-((1-(3-fluoropropyl)pyrrolidin-3-yl)oxy)phenyl)-6,7-dihydro-5H-benzo[7]annulen-3-yl)oxazolidin-2-one]"
13,87,"COC(=O)c1cccc(-c2ccc3c(c2)CCCC(c2ccc(Cl)cc2Cl)=C3c2ccc(O[C@H]3CCN(CCCF)C3)cc2)c1 [Example 57, Methyl (S)-3-(8-(2,4-dichlorophenyl)-9-(4-((1-(3-fluoropropyl)pyrrolidin-3-yl)oxy)phenyl)-6,7-dihydro-5H-benzo[7]annulen-3-yl)benzoate]"
14,74,"FCCCN1CC[C@H](Oc2ccc(C3=C(c4ccc(OC(F)(F)F)cc4)CCCc4cc(OC(F)F)ccc43)cc2)C1 [Example 24, (S)-3-(4-(3-(difluoromethoxy)-8-(4-(trifluoromethoxy)phenyl)-6,7-dihydro-5H-benzo[7]annulen-9-yl)phenoxy)-1-(3-fluoropropyl)pyrrolidine]"
